Values after ≈ are worked out from the molar mass of the structure shown.
What was measured:
[1] = test system: Bacillus subtilis ATCC 6623 (Bs); assay: MIC, microdilution (CLSI); type: cell-based; settings: ATCC6623; Bs, Bacillus subtilis ATCC 6623; n = 3; read-out: MIC
Protocol: (§1) Compounds were dissolved in dimethyl sulfoxide (DMSO) to achieve a starting concentration of 32 µg/mL as described by us previously. Compounds were further diluted two-fold across the 96-well honeycomb plate columns in cation adjusted Mueller Hinton broth (CAMHB), and bacterial culture was added. Plates were incubated for 18–20 h at 35 ℃ before determining the minimum concentrations at which wells had no visible turbidity to the naked eye. The MIC values were determined from at least a duplicate result obtained from three independent experiments using fresh bacterial cultures on different days.

[2] = test system: E. faecalis ATCC 29212 (Ef12); assay: MIC, microdilution (CLSI); type: cell-based; settings: Enterococcus faecalis, ATCC29212; Ef12, antibiotic susceptible E. faecalis ATCC 29212; n = 3; read-out: MIC
Protocol: as §1

[3] = test system: E. faecalis ATCC 51299 (Ef99); assay: MIC, microdilution (CLSI); type: cell-based; settings: Enterococcus faecalis, ATCC 51299 / VRE; Ef99, vancomycin-resistant (VRE) E. faecalis ATCC 51299; n = 3; read-out: MIC
Protocol: as §1

[4] = test system: E. faecium ATCC 700221 (Ef21); assay: MIC, microdilution (CLSI); type: cell-based; settings: Enterococcus faecium, ATCC 700221 / VRE; Ef21, vancomycin-resistant (VRE) E. faecium ATCC 700221; n = 3; read-out: MIC
Protocol: as §1

[5] = test system: S. aureus ATCC 25923 (Sa23); assay: MIC, microdilution (CLSI); type: cell-based; settings: Staphylococcus aureus, ATCC25923; Sa23, antibiotic susceptible S. aureus ATCC 25923; n = 3; read-out: MIC
Protocol: as §1

[6] = test system: S. aureus ATCC 33591 (Sa91); assay: MIC, microdilution (CLSI); type: cell-based; settings: Staphylococcus aureus, ATCC33591; Sa91, methicillin-resistant S. aureus ATCC 33591; n = 3; read-out: MIC
Protocol: as §1

[7] = test system: S. aureus ATCC 33592 (Sa92); assay: MIC, microdilution (CLSI); type: cell-based; settings: Staphylococcus aureus, ATCC33592; Sa92, methicillin-resistant S. aureus ATCC 33592; n = 3; read-out: MIC
Protocol: as §1

[8] = test system: S. aureus ATCC 700699 (Sa99); assay: MIC, microdilution (CLSI); type: cell-based; settings: Staphylococcus aureus, ATCC700699; Sa99, methicillin-resistant S. aureus ATCC 700699; n = 3; read-out: MIC
Protocol: as §1

[9] = test system: S. aureus BAA-2312 (Sa12); assay: MIC, microdilution (CLSI); type: cell-based; settings: Staphylococcus aureus, BAA2312; Sa12, methicillin-resistant S. aureus BAA-2312; n = 3; read-out: MIC
Protocol: as §1

[10] = test system: S. epidermidis ATCC 700296 (Se); assay: MIC, microdilution (CLSI); type: cell-based; settings: Staphylococcus epidermidis, ATCC700296; Se, S. epidermidis ATCC 700296; n = 3; read-out: MIC
Protocol: as §1

[11] = test system: S. aureus biofilms (Sa23); assay: Biofilm eradication (MBEC), Calgary Biofilm Device; type: cell-based, Staphylococcus aureus
Protocol: (§2) Minimum biofilm eradication concentration (MBEC) was determined using a Calgary device using the protocol reported elsewhere with some modifications. The Calgary device is a 96-well plate with a lid containing pegs to establish biofilms. Bacteria from an overnight plate culture were suspended to a 0.5 McFarland turbidity, then diluted 1:100 in a CAMHB containing 1% glucose which was inoculated in the 96 wells (150 μL in each well) and incubated at 35 °C for 24 h to establish biofilm on the pegs. The lid was then removed, washed with PBS in a fresh 96 well plate, then transferred to another 96-well plate containing 2-fold serial dilutions of the test compounds dissolved in PBS (150 μL total volume in each well). This plate was called the “challenge plate”. The challenge plate was incubated for an additional 24 h, and the lid was transferred to the next 96-well plate containing fresh CAMHB media with 1% glucose (180 μL) and further incubated for 24 h. […] All the compounds were tested in a minimum of three independent experiments.

[12] = test system: E. faecalis biofilms (Efs12); assay: Biofilm eradication (MBEC), Calgary Biofilm Device; type: cell-based
Protocol: as §2

[13] = test system: MRSA (S. aureus ATCC 700699); assay: Time Kill Assay; type: cell-based, Staphylococcus aureus; settings: 4× MIC, positive controls
[14] = test system: S. aureus ATCC 700699 persisters; assay: Persister viability assay; type: cell-based, Staphylococcus aureus; settings: 32× MIC, 4 h; for activity against persisters: S. aureus ATCC 700699 persisters
Protocol: (§3) The persister assay was performed following the methodology described previously. Briefly, for persister viability assays, S. aureus ATCC 700699 strain (MRSA) was grown to stationary phase in CAMHB medium by shaking at 200 rpm in a shaking incubator for 24 h at 35 °C. […] After incubation, 400 µL aliquot was washed, serially diluted in PBS, and plated in blood agar plate for viable colony count.

[15] = Cytotoxicity assay (resazurin); type: cell-based; settings: human, HEK-293 cells, 24 h treatment, n = 3
Protocol: The human embryonic kidney cell line (HEK-293) was used to assess the cytotoxicity of the antibiotics as described by us previously. HEK-293 cells were cultured in Dulbecco’s modified eagle’s medium (DMEM) containing 10% Fetal Bovine Serum (FBS) and incubated at 37 °C in the presence of 5% carbon dioxide. HEK-293 cells were cultured in 96-well black plates with 6000 cells per well for the first 24 h followed by treatment with a range of concentrations of antibiotics dissolved in DMSO for the next 24 h. After the second period of incubation, resazurin (40 µL of 0.15 mg/mL) was added to each well and incubated for an additional 4 h. Reduction of resazurin was measured fluorometrically with excitation wavelength at 560 nm and emission at 590 nm using BioTek™ Cytation™5 plate reader. Percentage viability of HEK cells for each range of concentrations was calculated, taking the fluorescence value of the wells treated with DMSO as a reference, using Microsoft® Excel® for Office 365 MSO. IC50 values were computed using the calculated percentage viability values through data processing in Graphpad Prism 7 for Windows, Version 7.04.

[16] = test system: MRSA persisters (S. aureus ATCC 700699); assay: Persister Time Kill Assay; type: cell-based, Staphylococcus aureus; settings: for decrease of persister cells: 2× MIC, 8 h; for persisters eradicated: within 8 h at all the 4× MIC, 8× MIC and 16× MIC concentrations
Protocol: as §3
Likewise, for persister time-kill assays, the persister cells were treated at varied concentrations and incubated with shaking. At the start and every 2 h until 8 h, 400 µL samples were washed, serially diluted, and plated on blood agar using the 6 × 6 drop plate method. Plates were incubated for 18–20 h at 35 °C, before the colonies were counted to calculate CFU/mL. All the treatments were performed in triplicates.

[17] = test system: S. aureus and E. faecalis biofilms; assay: Biofilm eradication, S. aureus and E. faecalis; type: cell-based
Protocol: as §2

| MIC [1] | MIC [2] | MIC [3] | MIC [4] | MIC [5] | MIC [6] | MIC [7] | MIC [8] | MIC [9] | MIC [10] | SMILES | MBEC [11] | MBEC [12] | time to eliminate >99.9% CFUs [13] | activity against persisters [14] | IC50 at 24 h [15] | reduction of the population of persisters compared to the positive controls [14] | decrease of persister cells [16] | persisters eradicated [16] | MBEC values [17] |
| --- | --- | --- | --- | --- | --- | --- | --- | --- | --- | --- | --- | --- | --- | --- | --- | --- | --- | --- | --- |
| 2 µg/mL (≈ 1.23 µM) | 16 µg/mL (≈ 9.87 µM) | 16 µg/mL (≈ 9.87 µM) | 16 µg/mL (≈ 9.87 µM) | 2 µg/mL (≈ 1.23 µM) | 2 µg/mL (≈ 1.23 µM) | 2 µg/mL (≈ 1.23 µM) | 8 µg/mL (≈ 4.94 µM) | 2 µg/mL (≈ 1.23 µM) | 2 µg/mL (≈ 1.23 µM) | CCCCCCCCCC(=O)N[C@@H](Cc1c[nH]c2ccccc12)C(=O)N[C@H](CC(N)=O)C(=O)N[C@@H](CC(=O)O)C(=O)N[C@@H]1C(=O)NCC(=O)N[C@@H](CCCN)C(=O)N[C@@H](CC(=O)O)C(=O)N[C@H](C)C(=O)N[C@@H](CC(=O)O)C(=O)NCC(=O)N[C@H](CO)C(=O)N[C@@H]([C@H](C)CC(=O)O)C(=O)N[C@@H](CC(=O)c2ccccc2N)C(=O)O[C@@H]1C [D, Daptomycin, reference compound] | >32 µg/mL | >32 µg/mL | 6 h | failed to demonstrate persister kill activity | – | – | – | – | – |
| 2 µg/mL (≈ 3.14 µM) | 2 µg/mL (≈ 3.14 µM) | 2 µg/mL (≈ 3.14 µM) | 1 µg/mL (≈ 1.57 µM) | 2 µg/mL (≈ 3.14 µM) | 1 µg/mL (≈ 1.57 µM) | 1 µg/mL (≈ 1.57 µM) | 2 µg/mL (≈ 3.14 µM) | 1 µg/mL (≈ 1.57 µM) | 2 µg/mL (≈ 3.14 µM) | O=C(O)c1ccc(-n2cc(CNc3ccc(Br)c(Cl)c3F)c(-c3cc(C(F)(F)F)cc(C(F)(F)F)c3)n2)cc1 [Compound 29, 4-[3-[3,5-Bis(trifluoromethyl)phenyl]-4-[(4-bromo-3-chloro-2-fluoro-anilino)methyl]pyrazol-1-yl] benzoic acid] | – | 2 µg/mL | – | very effective | 7 to 8 µg/mL (≈ 11 to 12.6 µM) | 4 log values | ~2 log value | more than 3 log values | ≥ 1 µg/mL |
| 1 µg/mL (≈ 1.71 µM) | 2 µg/mL (≈ 3.42 µM) | 1 µg/mL (≈ 1.71 µM) | 1 µg/mL (≈ 1.71 µM) | 2 µg/mL (≈ 3.42 µM) | 1 µg/mL (≈ 1.71 µM) | 1 µg/mL (≈ 1.71 µM) | 2 µg/mL (≈ 3.42 µM) | 1 µg/mL (≈ 1.71 µM) | 2 µg/mL (≈ 3.42 µM) | O=C(O)c1ccc(-n2cc(CNc3ccc(Br)cc3)c(-c3cc(C(F)(F)F)cc(C(F)(F)F)c3)n2)cc1 [Compound 11, 4-[3-[3,5-Bis(trifluoromethyl)phenyl]-4-[(4-bromoanilino)methyl]pyrazol-1-yl] benzoic acid] | – | 4 µg/mL | – | very effective | 7 to 8 µg/mL (≈ 12 to 13.7 µM) | 4 log values | 1 log value | more than 3 log values | – |

From publication PMC8398255, “Synthesis of 3,5-Bis(trifluoromethyl)phenyl-Substituted Pyrazole Derivatives as Potent Growth Inhibitors of Drug-Resistant Bacteria” (Molecules, 2021)
